# Active and inactive are the calls of the source. The rule behind the calls is not given here.
# Columns and labels:
# [1] = Cytotoxicity against human Jurkat cells after 72 hrs by MTT assay; assay type: cell-based; conditions: read-out: CD50
# [2] = test system: Mycobacterium tuberculosis; assay: Bacteriostatic activity against Mycobacterium tuberculosis H37Rv assessed as growth inhibition at 20 ug/mL relative to control; assay type: functional; conditions: read-out: GI
# [3] = test system: Mycobacterium tuberculosis; assay: Bacteriostatic activity against Mycobacterium tuberculosis H37Rv assessed as growth inhibition at 5 ug/mL relative to control; assay type: functional; conditions: read-out: GI
# [4] = test system: Mycobacterium tuberculosis; assay: Bacteriostatic activity against Mycobacterium tuberculosis H37Rv assessed as growth inhibition; assay type: functional
# [5] = test system: Mycobacterium tuberculosis; assay: Bacteriostatic activity against Mycobacterium tuberculosis H37Rv assessed as growth inhibition at 10 ug/mL relative to control; assay type: functional; conditions: read-out: GI
# [6] = Cytotoxicity against African green monkey Vero cells after 72 hrs by MTT assay; assay type: cell-based; conditions: chlorocebus sabaeus, read-out: CD50
# [7] = Cytotoxicity against human A549 cells after 72 hrs by MTT assay; assay type: cell-based; conditions: read-out: CD50
# [8] = test system: Mycobacterium tuberculosis; assay: Bacteriostatic activity against Mycobacterium tuberculosis H37Rv assessed as growth inhibition at 1 ug/mL relative to control; assay type: functional; conditions: read-out: GI
# [9] = test system: Mycobacterium tuberculosis; assay: Bacteriostatic activity against Mycobacterium tuberculosis H37Rv assessed as growth inhibition at 200 ug/mL relative to control; assay type: functional; conditions: read-out: GI
# [10] = test system: Mycobacterium tuberculosis; assay: Bacteriostatic activity against Mycobacterium tuberculosis H37Rv assessed as growth inhibition at 50 ug/mL relative to control; assay type: functional; conditions: read-out: GI
# [11] = test system: Mycobacterium tuberculosis; assay: Bacteriostatic activity against Mycobacterium tuberculosis H37Rv assessed as growth inhibition at 100 ug/mL relative to control; assay type: functional; conditions: read-out: GI
# Saccharomyces cerevisiae = assay: Antifungal activity against Saccharomyces cerevisiae RIA 259; assay type: functional, organism-based
# Staphylococcus aureus [12] = assay: Antibacterial activity against methicillin-susceptible Staphylococcus aureus FDA 209P; assay type: functional, organism-based
# Bacillus pumilus = assay: Antibacterial activity against Bacillus pumilus NCTC 8241; assay type: functional, organism-based
# Micrococcus luteus = assay: Antibacterial activity against Micrococcus luteus NCTC 8340; assay type: functional, organism-based
# [13] = test system: Leuconostoc mesenteroides; assay: Antibacterial activity against vancomycin-resistant Leuconostoc mesenteroides VKPM B-4177; assay type: functional
# Pseudomonas aeruginosa = assay: Antibacterial activity against Pseudomonas aeruginosa ATCC 27853; assay type: functional, organism-based
# Bacillus mycoides = assay: Antibacterial activity against Bacillus mycoides 537; assay type: functional, organism-based
# Escherichia coli = assay: Antibacterial activity against Escherichia coli ATCC 25922; assay type: functional, organism-based
# Aspergillus niger = assay: Antifungal activity against Aspergillus niger INA 00760; assay type: functional, organism-based
# Bacillus subtilis = assay: Antibacterial activity against Bacillus subtilis ATCC 6633; assay type: functional, organism-based
# Staphylococcus aureus [14] = assay: Antibacterial activity against methicillin-resistant Staphylococcus aureus INA 00761; assay type: functional, organism-based
Structure (SMILES),CC50 at 72 h [1] [µg/mL],inhibition of growth at 20 µg/mL [2] [%],MIC99 [4] [µg/mL],inhibition of growth at 10 µg/mL [5] [%],CC50 at 72 h [6] [µg/mL],CC50 at 72 h [7] [µg/mL],inhibition of growth at 50 µg/mL [10] [%],further results
CCCCCCCCCCCCc1cn(Cc2cn([C@H]3C[C@H](O)[C@@H](CO)O3)c(=O)nc2N)nn1,100,100,10,99,> 100,100,–,inhibition of growth at 5 µg/mL [3]: 75%
CO[C@H]1/C=C/O[C@@]2(C)Oc3c(C)c(O)c4c(O)c(c(/C=N/N5CCN(C)CC5)c(O)c4c3C2=O)NC(=O)/C(C)=C\C=C\[C@H](C)[C@H](O)[C@@H](C)[C@@H](O)[C@@H](C)[C@H](OC(C)=O)[C@@H]1C [RIFAMPIN],–,–,1,–,> 500,–,–,inhibition of growth at 1 µg/mL [8]: 100%
CC1COc2c(N3CCN(C)CC3)c(F)cc3c(=O)c(C(=O)O)cn1c23 (stereo not given) [OFLOXACIN],–,–,2,–,–,–,–,–
CCCCCCCCCCCCOCc1cn([C@H]2C[C@H](O)[C@@H](CO)O2)c(=O)nc1N,37,–,200,–,> 100,45,–,inhibition of growth at 200 µg/mL [9]: 100%
CCCCCCCCCCCCOCc1cn([C@H]2C[C@H](N(CC)CC)[C@@H](CO)O2)c(=O)[nH]c1=O,5,99,20,75,7.5,5,100,inhibition of growth at 100 µg/mL [11]: 100%
NNC(=O)c1ccncc1 [ISONIAZID],–,–,0.1,–,–,–,–,–
CCCCCCCCCCCCOCc1cn([C@H]2C[C@H](N)[C@@H](CO)O2)c(=O)[nH]c1=O,7,90,> 20,25,50,8,–,–
CCCCCCCCCCCCOCc1cn([C@H]2C[C@H](O)[C@@H](CO)O2)c(=O)[nH]c1=O,100,100,20,90,> 100,100,100,Activity (Saccharomyces cerevisiae): inactive; inhibition of growth at 5 µg/mL [3]: 25%; Activity (Staphylococcus aureus [12]): inactive; Activity (Bacillus pumilus): inactive; Activity (Micrococcus luteus): inactive; Activity [13]: inactive; Activity (Pseudomonas aeruginosa): inactive; Activity (Bacillus mycoides): inactive; Activity (Escherichia coli): inactive; Activity (Aspergillus niger): inactive; Activity (Bacillus subtilis): inactive; inhibition of growth at 100 µg/mL [11]: 100%; Activity (Staphylococcus aureus [14]): inactive
CCCCCCCCCCCCCCOCc1cn([C@H]2C[C@H](O)[C@@H](CO)O2)c(=O)[nH]c1=O,–,–,200,–,> 100,–,–,inhibition of growth at 200 µg/mL [9]: 100%
CCCCCCCCCCCCOCc1cn([C@H]2C[C@H](O)[C@@H](CN)O2)c(=O)[nH]c1=O,7,100,20,50,14,8,100,inhibition of growth at 100 µg/mL [11]: 100%
CCCCCCCCCCCCOCc1cn([C@H]2C[C@H](O)[C@@H](CI)O2)c(=O)[nH]c1=O,> 100,100,10,100,70,> 100,100,inhibition of growth at 5 µg/mL [3]: 90%

# Reference: ChEMBL document CHEMBL2412960, “Inhibition of Mycobacterium tuberculosis strains H37Rv and MDR MS-115 by a new set of C5 modified pyrimidine nucleosides” (Bioorg Med Chem, 2013)
